In ChEMBL document CHEMBL1201862, “PubChem BioAssay data set” (2004):
The source made the active and inactive calls.

Columns and labels:
[1] = biological target: T1, Mannose-6-phosphate isomerase (Homo sapiens, UniProt P34949); assay: human PMI inhibitors, high substrate, primary screen, biochemical, fluorescence intensity, high mannose 6-phosphate (AID 1220)
T1 sequence (P34949 whole entry): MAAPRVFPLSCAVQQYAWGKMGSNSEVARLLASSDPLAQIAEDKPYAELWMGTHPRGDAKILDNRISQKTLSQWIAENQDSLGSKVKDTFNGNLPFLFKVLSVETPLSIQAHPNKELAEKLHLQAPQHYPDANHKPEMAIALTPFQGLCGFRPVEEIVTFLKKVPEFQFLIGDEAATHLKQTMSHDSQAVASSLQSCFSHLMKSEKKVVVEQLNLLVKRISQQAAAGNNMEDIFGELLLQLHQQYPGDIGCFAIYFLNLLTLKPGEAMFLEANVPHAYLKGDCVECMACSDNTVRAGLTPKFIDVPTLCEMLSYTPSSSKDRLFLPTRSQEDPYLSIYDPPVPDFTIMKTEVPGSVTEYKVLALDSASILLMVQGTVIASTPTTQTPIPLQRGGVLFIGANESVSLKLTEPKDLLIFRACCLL

ORF 73 = biological target: T2, ORF 73 (Human herpesvirus 8, UniProt O40947); assay: inhibitors of C-LANA binding to LBS DNA, dose response, biochemical, fluorescence polarization, cherry-picked samples (AID 504725); parameters: species or system Human gammaherpesvirus 8;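 further: fluorescence polarization of a labeled DNA duplex reporting LANA DNA binding; potency is for inhibitors that block LANA binding to the DNA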
T2 sequence (O40947 whole entry): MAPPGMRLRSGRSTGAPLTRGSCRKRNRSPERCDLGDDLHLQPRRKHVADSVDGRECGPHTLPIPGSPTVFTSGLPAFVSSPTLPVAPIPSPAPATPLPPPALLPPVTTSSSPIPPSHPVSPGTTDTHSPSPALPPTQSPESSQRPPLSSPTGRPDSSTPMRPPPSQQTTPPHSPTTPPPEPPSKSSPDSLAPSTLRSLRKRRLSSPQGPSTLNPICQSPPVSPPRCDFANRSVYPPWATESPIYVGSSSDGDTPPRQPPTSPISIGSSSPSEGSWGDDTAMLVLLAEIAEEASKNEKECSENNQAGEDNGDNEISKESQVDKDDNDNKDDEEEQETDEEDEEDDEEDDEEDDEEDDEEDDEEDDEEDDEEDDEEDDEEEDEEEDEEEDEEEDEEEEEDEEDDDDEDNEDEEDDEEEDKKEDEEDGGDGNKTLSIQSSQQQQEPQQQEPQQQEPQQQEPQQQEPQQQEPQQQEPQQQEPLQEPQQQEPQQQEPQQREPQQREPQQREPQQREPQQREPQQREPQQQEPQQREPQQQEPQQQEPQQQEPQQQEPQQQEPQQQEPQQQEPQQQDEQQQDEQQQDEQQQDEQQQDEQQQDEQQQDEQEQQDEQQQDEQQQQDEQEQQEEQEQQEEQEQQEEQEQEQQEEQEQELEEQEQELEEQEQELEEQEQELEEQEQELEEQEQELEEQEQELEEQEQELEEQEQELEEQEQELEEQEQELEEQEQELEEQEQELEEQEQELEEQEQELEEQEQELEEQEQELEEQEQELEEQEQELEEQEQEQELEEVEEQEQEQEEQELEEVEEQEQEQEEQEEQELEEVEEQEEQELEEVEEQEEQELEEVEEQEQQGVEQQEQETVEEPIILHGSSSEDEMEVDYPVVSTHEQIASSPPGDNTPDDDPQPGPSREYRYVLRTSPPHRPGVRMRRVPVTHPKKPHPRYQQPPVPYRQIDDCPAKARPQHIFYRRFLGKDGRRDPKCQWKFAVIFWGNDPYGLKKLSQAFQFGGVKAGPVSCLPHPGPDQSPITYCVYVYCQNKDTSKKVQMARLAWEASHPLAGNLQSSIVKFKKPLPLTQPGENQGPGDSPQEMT

Keap1/Nrf2 = Keap1/Nrf2 (Homo sapiens, UniProt Q14145); assay: Keap1-Nrf2 protein-protein interaction inhibitors, dose response, biochemical, fluorescence polarization, cherry-picked samples (AID 588683)
[2] = biological target: Voltage-dependent T-type calcium channel subunit alpha-1H (Homo sapiens, UniProt O95180); format: functional;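 further: channel activity triggered by adding a high calcium stimulation buffer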
HEK293 [3] = assay: cells; conditions: Homo sapiens
HEK293 [4] = assay: cells; conditions: Homo sapiens; remark: listed apart in the source
[5] = biological target: T1, Mannose-6-phosphate isomerase; assay: PMI enzyme inhibitors, confirmation, biochemical, fluorescence intensity (AID 1535)
[6] = biological target: T3, Heat shock factor protein 1 (Mus musculus, UniProt P38532); assay: inhibition of MG132-induced HSE-luciferase signal, confirmation, cell-based, NIH3T3, luminescence, dose retest (AID 2382); format: functional;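 further: NIH3T3 fibroblasts with HSF1-driven luciferase reporter stressed by proteasome inhibitor MG132; luminescence from HSF1-driven luciferase expression after 8 hours of MG132 stress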
T3 sequence (P38532 whole entry): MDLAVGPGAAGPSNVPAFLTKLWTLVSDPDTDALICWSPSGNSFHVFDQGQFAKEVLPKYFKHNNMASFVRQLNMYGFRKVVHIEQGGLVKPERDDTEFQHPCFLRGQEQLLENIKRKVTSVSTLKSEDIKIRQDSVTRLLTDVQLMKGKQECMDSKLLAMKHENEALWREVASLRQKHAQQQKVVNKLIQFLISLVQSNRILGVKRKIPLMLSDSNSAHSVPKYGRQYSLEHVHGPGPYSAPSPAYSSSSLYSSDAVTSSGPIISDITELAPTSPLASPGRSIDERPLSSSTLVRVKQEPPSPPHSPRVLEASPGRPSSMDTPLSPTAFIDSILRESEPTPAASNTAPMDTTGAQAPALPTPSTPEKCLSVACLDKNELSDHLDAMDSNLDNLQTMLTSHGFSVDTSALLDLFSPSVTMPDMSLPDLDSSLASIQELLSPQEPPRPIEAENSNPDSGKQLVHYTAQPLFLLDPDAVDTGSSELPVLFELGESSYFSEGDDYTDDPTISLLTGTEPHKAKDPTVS

Exodeoxyribonuclease V = biological target: T4, Exodeoxyribonuclease V (Escherichia coli (strain K12), UniProt P04993+P07648+P08394); assay: E. coli RecBCD inhibitors, dose response, counter-screen for AddAB inhibitor project, absorbance, V66 E. coli, mutant T4 phage (AID 492957); format: functional, cell-based, Escherichia coli str. K-12 substr. MG1655
T4 sequence (P04993 whole entry): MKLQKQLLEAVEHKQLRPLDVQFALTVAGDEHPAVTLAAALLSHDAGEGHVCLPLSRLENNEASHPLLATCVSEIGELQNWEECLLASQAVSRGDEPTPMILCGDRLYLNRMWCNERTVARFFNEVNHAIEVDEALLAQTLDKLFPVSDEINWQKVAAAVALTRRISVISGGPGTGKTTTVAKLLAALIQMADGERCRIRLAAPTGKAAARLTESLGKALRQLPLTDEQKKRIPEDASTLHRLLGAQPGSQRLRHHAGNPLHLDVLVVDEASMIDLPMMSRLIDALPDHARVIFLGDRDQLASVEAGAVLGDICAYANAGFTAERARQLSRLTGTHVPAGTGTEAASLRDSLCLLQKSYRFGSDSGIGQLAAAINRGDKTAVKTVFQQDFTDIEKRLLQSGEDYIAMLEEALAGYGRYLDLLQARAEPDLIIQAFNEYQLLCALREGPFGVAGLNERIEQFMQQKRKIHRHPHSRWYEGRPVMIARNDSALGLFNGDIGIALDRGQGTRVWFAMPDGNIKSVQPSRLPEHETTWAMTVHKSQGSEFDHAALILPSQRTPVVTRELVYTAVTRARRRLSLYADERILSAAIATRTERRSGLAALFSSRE
T4 sequence (P07648 whole entry): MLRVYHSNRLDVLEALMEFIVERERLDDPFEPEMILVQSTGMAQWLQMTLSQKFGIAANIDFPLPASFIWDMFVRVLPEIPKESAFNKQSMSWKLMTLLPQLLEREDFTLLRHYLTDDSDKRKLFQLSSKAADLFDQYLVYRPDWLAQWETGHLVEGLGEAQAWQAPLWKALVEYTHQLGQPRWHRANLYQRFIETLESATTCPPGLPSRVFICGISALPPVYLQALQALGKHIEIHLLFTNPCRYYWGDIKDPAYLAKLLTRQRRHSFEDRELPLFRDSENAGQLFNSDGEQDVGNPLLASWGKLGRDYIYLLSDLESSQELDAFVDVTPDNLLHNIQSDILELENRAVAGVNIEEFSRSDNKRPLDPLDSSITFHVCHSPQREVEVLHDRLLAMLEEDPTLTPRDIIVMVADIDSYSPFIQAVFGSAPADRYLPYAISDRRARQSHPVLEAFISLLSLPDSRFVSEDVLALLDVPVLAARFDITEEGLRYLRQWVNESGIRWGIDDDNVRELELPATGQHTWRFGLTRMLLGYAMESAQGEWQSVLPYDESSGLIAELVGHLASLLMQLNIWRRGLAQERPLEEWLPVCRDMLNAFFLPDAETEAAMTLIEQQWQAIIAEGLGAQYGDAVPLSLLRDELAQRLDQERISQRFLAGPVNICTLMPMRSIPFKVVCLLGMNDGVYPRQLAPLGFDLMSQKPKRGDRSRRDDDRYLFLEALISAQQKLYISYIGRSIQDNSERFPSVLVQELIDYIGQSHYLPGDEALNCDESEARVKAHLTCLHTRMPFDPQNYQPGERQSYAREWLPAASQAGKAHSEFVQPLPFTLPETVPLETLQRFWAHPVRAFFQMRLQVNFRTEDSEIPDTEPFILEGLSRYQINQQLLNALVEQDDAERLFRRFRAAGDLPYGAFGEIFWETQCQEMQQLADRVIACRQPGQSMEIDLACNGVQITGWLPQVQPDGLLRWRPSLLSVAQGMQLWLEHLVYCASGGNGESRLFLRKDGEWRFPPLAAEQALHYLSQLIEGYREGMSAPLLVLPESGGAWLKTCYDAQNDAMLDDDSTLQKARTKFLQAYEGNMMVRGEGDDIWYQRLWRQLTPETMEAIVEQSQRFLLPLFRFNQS
T4 sequence (P08394 whole entry): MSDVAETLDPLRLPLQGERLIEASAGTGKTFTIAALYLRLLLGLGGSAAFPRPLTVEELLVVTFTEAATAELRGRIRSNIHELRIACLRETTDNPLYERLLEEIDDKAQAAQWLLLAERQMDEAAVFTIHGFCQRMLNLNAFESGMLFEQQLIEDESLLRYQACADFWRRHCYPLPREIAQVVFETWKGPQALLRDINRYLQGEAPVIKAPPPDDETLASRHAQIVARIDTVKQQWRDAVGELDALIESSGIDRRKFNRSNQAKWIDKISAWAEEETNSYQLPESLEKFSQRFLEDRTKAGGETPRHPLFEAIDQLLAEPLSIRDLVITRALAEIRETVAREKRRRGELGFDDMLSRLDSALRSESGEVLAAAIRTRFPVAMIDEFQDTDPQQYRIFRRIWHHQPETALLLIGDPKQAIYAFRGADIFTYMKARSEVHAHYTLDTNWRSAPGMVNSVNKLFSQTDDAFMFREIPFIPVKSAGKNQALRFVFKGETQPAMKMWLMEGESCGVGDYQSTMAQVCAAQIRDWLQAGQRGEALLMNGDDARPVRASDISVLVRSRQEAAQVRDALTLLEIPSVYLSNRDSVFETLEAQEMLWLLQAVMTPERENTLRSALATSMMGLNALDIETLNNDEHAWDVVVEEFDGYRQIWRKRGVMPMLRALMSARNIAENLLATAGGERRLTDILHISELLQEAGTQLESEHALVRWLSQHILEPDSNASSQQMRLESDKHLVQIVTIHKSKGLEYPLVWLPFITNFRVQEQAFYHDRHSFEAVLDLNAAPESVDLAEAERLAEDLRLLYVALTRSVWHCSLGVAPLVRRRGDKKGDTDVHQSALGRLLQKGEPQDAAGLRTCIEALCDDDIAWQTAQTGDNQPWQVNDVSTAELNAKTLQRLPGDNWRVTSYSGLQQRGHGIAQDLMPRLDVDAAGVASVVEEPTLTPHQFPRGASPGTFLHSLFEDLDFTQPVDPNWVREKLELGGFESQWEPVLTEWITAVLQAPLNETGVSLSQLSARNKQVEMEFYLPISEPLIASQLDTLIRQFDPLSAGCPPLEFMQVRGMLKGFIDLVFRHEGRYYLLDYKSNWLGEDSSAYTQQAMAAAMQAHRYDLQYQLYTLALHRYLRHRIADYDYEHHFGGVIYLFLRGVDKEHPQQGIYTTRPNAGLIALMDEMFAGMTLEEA

[7] = Counterscreen for AddAB inhibitors: absorbance-based bacterial cell-based high throughput dose response assay for inhibitors of bacterial viability. [Related pubchem assays (depositor defined):AID435030, AID449728, AID449731, AID488942, AID488955, AID488956]; format: functional
[8] = microbe, parasite or virus in culture; format: functional; conditions: Mycobacterium tuberculosis
[9] = biological target: T5, Ubiquitin-conjugating enzyme E2 N (Homo sapiens, UniProt P61088); format: functional;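 further: Dose-response confirmation in a TR-FRET assay detecting UBC13-driven polyubiquitin chain formation, inhibition measured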
T5 sequence (P61088 whole entry): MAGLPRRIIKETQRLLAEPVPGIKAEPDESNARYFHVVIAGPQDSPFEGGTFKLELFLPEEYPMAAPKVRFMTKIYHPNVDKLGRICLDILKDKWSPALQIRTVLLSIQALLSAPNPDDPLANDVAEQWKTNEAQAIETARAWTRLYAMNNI

Vero [10] = assay: cells; format: functional, cell-based; conditions: Chlorocebus sabaeus
Vero [11] = assay: cells; format: functional; conditions: Chlorocebus sabaeus

Keap1/Nrf2, sequence (Q16236 whole entry): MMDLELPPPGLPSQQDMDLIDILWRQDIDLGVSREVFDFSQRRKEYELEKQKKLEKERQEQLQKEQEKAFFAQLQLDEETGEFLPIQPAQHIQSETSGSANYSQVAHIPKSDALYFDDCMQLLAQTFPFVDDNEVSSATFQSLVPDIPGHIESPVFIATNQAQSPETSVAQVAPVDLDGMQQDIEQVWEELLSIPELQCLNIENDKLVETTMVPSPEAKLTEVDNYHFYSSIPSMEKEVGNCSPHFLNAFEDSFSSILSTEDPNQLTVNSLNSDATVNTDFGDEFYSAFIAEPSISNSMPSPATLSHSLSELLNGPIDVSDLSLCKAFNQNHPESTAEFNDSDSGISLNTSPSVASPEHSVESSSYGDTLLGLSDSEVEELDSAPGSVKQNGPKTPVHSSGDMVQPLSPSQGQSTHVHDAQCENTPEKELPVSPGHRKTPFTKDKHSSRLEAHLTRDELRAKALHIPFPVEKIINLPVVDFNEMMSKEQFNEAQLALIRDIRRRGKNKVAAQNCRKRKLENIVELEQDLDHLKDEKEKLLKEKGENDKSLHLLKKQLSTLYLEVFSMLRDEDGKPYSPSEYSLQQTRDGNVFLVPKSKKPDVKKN
Keap1/Nrf2, sequence (Q14145 whole entry): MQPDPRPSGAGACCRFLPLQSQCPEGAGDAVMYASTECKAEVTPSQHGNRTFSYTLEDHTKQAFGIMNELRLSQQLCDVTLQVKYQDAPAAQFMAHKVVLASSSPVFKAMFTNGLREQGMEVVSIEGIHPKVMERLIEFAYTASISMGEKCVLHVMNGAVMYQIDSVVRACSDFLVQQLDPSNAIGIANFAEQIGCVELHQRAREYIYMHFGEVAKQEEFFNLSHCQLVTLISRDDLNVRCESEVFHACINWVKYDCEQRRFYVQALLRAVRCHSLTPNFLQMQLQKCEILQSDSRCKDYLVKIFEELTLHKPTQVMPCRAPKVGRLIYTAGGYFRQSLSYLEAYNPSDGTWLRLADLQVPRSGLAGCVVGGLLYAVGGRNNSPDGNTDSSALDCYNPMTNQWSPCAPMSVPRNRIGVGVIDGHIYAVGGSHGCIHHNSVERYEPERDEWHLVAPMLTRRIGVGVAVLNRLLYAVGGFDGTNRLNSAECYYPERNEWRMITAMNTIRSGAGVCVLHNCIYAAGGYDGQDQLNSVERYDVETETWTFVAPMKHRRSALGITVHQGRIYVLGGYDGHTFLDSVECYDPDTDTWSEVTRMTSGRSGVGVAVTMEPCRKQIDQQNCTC
Voltage-dependent T-type calcium channel subunit alpha-1H, sequence (O95180 whole entry): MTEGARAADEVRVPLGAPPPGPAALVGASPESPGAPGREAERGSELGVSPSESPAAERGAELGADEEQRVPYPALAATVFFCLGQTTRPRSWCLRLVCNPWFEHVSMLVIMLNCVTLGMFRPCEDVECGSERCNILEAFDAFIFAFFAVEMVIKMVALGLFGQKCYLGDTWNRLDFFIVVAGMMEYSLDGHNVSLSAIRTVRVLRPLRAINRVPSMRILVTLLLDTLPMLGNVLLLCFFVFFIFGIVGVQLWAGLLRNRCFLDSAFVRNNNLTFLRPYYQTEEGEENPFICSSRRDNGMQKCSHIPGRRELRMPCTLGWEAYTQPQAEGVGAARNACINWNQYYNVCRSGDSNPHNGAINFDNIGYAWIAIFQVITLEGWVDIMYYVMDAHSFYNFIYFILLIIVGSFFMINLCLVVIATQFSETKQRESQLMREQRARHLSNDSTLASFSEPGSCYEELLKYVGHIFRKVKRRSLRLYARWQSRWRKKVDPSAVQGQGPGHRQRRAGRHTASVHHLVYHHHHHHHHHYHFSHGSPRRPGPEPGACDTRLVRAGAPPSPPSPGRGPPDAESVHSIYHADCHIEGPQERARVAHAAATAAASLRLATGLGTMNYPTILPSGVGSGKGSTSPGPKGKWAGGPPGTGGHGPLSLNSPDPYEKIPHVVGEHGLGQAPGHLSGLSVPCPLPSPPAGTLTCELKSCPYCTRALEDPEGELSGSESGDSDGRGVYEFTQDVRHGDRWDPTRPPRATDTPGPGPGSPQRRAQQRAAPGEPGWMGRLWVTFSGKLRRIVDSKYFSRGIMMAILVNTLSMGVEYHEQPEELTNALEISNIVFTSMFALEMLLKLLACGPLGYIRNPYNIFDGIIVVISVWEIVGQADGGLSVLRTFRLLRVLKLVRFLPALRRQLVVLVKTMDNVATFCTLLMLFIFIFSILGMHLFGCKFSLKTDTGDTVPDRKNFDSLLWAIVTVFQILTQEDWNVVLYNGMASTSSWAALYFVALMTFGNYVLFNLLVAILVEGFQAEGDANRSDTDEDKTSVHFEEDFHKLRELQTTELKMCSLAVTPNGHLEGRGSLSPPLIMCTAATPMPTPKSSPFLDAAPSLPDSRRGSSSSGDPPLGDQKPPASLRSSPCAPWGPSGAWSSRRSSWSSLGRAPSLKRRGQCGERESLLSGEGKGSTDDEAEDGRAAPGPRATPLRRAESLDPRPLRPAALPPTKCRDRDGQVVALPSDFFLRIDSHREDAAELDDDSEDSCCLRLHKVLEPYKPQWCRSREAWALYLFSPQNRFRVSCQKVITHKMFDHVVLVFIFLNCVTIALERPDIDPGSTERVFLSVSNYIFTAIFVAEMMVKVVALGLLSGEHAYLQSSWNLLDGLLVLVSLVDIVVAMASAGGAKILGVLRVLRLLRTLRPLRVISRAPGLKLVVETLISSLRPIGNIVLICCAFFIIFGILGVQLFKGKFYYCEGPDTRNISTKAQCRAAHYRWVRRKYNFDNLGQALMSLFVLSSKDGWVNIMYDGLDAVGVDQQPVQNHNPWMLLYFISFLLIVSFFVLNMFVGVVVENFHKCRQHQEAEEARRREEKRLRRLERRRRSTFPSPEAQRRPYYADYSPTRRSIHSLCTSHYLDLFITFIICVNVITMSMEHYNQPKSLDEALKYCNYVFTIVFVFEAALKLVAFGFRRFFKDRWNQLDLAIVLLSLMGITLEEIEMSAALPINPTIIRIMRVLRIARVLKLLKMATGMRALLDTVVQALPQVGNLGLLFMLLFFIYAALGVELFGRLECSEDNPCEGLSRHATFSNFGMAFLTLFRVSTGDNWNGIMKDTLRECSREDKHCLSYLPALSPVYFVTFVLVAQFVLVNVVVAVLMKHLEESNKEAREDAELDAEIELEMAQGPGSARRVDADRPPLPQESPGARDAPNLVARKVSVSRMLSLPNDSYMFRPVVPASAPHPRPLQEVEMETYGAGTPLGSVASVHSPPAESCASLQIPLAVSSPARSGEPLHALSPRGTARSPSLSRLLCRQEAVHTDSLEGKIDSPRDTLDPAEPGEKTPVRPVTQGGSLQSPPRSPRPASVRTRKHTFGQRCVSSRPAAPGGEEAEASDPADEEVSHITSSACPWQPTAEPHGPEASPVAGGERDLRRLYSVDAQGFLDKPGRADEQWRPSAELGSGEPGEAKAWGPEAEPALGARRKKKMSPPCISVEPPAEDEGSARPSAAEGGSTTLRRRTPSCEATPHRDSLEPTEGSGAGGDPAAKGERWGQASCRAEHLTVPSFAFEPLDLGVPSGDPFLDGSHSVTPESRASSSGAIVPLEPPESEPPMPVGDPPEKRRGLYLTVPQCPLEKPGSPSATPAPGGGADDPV

Cc1cc2nc3c(=O)n(C4CCCCC4)c(=O)[nH]c3nc2cc1N
IC50 [1]: > 50 µM (not active)
AC50 (ORF 73): 27.6 µM (active)
AC50 (Keap1/Nrf2): 1.92 µM (active)

CCOC(=O)C1CCCN(C(=O)C2c3ccccc3Oc3ccccc32)C1 (configuration not stated)
EC50 [2]: 38.8 µM (active)
AC50 (ORF 73): 127 µM (active)
AC50 (Keap1/Nrf2): > 52 µM (inactive)

CC(C)Cn1c(=O)[nH]c(=O)c2c(C(F)(F)F)cc(-c3ccccc3)nc21
EC50 (HEK293 [3]): > 59.6 µM (inactive)
EC50 (HEK293 [4]): > 59.6 µM (inactive)

CCOc1nss/c1=N\c1ccc2ccccc2c1
IC50 [5]: > 100 µM (inactive)

Clc1nss/c1=N\C1=NCCS1
IC50 [5]: > 100 µM (inactive)

Cc1ccc(-c2oc3ccccc3c(=O)c2O)cc1
EC50 [6]: > 195 µM (not active)
IC50 (Exodeoxyribonuclease V): > 119 µM (inactive)
IC50 [7]: > 119 µM (inactive)

CN1CCN(CC/C=C2/c3ccccc3Sc3ccc(S(=O)(=O)N(C)C)cc32)CC1 [THIOTHIXENE]
CC50 [8]: > 40 µM (active)
IC50 [9]: > 20 µM (inactive)
IC50 (Vero [10]): > 25 µM (active)
CC50 (Vero [11]): 15.2 µM (active)
